Consider three compounds from patent US20110009351A1, “SCREENING ASSAY TO IDENTIFY CORRECTORS OF PROTEIN TRAFFICKING DEFECTS” (Traffick Therepeutics Inc., priority 2007, published 2011).

Assay type in all cases: cell-based
Assay [1] addresses T1, F508del CFTR (Homo sapiens, UniProt P13569, DEL508-508).
T1 construct: expressed in transfected cells; host or cells: HEK293 Griptite cells stably expressing F508del CFTR, transiently transfected with halide-sensitive eYFP
Put plainly: YFP fluorescence quenching functional assay (iodide influx), HEK293 cells with F508del CFTR and halide sensitive YFP. As to conditions: 10 μM, 24 h. The gist of the method: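 HEK293 Griptite cells stably expressing F508del CFTR, transiently transfected with halide-sensitive eYFP, treated 24 h with 10 μM compound in triplicate, then stimulated 20 min with 25 μM forskolin, 45 μM IBMX and 50 μM genistein. YFP quench after 50 mM iodide imaged 15 times over 40 s on 150-300 cells/well.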

Assay [2] concerns the target T2, ΔF508-CFTR (Homo sapiens, UniProt P13569, DEL508-508). Details: which was then ligated into full length pNUT-CFTR linearized using Hpa1 and Pml1; expressed in transfected cells. The gist of the method:
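BHK cells stably expressing 3HA-tagged ΔF508-CFTR (tags in fourth extracellular loop) treated with compound at 20 μM final for 24 h at 37° C. Surface ΔF508-CFTR measured on fixed, non-permeabilised cells by anti-HA/FITC immunofluorescence (488/510 nm), relative to untreated-well background; hits retested in duplicate, intrinsically fluorescent compounds excluded.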

In assay [3] the target is T2, ΔF508-CFTR. Put plainly: short-circuit current (Isc) across CFBE41o− monolayers in Ussing chambers. Particulars: 10 μM, 24 h. Details: expressed in transfected cells; host or cells: CFBE41o- (ΔF508/ΔF508) transduced with ΔF508-CFTR, TranzVector lentivirus, provided by J. P. Clancy. The protocol:
Short-circuit current (Isc) was measured across monolayers in modified Ussing chambers. 1×10^6 CFBE41o^− cells were seeded onto 12-mm fibronectin-coated Snapwell inserts (Corning Incorporated, Life Sciences, New-York, N.Y.) and the apical medium was removed after 24 h. Transepithelial resistance was monitored using an EVOM epithelial voltohmmeter (World Precision Instruments, Sarasota, Fla.) and cells were used when the transepithelial resistance was 300-400 ohms·cm^2. In some experiments, F508del-CFBE41o^− monolayers were incubated at 29° C. or treated with glafenine at 37° C. for 24 h before being mounted in EasyMount chambers and voltage clamped using a VCCMC6 multichannel current-voltage clamp (Physiologic Instruments, San Diego, Calif.). The apical membrane conductance was functionally isolated by permeabilizing the basolateral membrane with 200 μg/ml nystatin and imposing an apical-to-basolateral Cl^− gradient. For these experiments the basolateral bathing solution contained (in mM) 1.2 NaCl, 115 Na-gluconate, 25 NaHCO3, 1.2 MgCl2, 4 CaCl2, 2.4, KH2PO4, 1.24 K2HPO4, 10 glucose (pH 7.4 with NaOH). The CaCl2 concentration was increased to 4 mM to compensate for the chelation of calcium by gluconate. The apical bathing solution contained (in mM) 115 NaCl, 25 NaHCO3, 1.2 MgCl2, 1.2 CaCl2, 2.4 KH2PO4, 1.24 K2HPO4, 10 mannitol (pH 7.4 with NaOH). […]

Assay [4] addresses T3, wt CFTR (Homo sapiens, UniProt P13569).
T3 construct: which was then ligated into full length pNUT-CFTR linearized using Hpa1 and Pml1; expressed in transfected cells
Put plainly: three stage ELISA of CFTR surface expression, BHK cells expressing wt CFTR. Particulars: 10% glycerol, cells expressing wild-type CFTR. How it is done: (§1) Cells were screened for CFTR surface expression using a three stage ELISA system (Pierce Inc., USA). Briefly, BHK cells expressing 3HA-tagged ΔF508-CFTR were seeded in 96-well plates (Corning, USA) at 30,000 cells per well and incubated for 24 h at 37° C. Each well was treated with a test compound for 24 h, then cells were fixed in 4% paraformaldehyde solution and washed with PBS containing 0.1% bovine serum albumin and 0.05% tween-20. Cells were blocked for 1 h in solution containing 3% normal horse serum in PBS at room temperature. […] After washing four more times, the cells were exposed to 3,3′,5,5′ tetramethylbenzidine (Pierce Inc., USA) for 15 min, sulphuric acid (2M) was added, and absorbance was measured at 450 nm (Power-Wavex Bio-tek Instruments).
(§2) To determine if cell surface expression of CFTR could be quantified in a high-throughput screen using this assay, cells expressing tagged versions of wt or ΔF508-CFTR were seeded in 96-well plates, treated with 10% glycerol and monitored as light absorbance using an enzyme-linked assay system. As expected, untreated ΔF508-CFTR cells had low absorbance since they expressed little CFTR on their cell surface under control conditions (FIG. 3A).

Assay [5] deals with T3, wt CFTR. The assay can be described thus: immunoblot and densitometry of mature band C, BHK cells expressing wt CFTR. Particulars: 10% glycerol. How it is done: (§3) Cell lysates were quantitated by Bradford assay (BioRad) and separated by SDS-PAGE (6% polyacrylamide gels) and analyzed by Western blotting. Western blots were blocked using 5% skimmed milk in PBS, then probed overnight at 4° C. with a primary anti-CFTR antibody at a dilution of 1:1000 monoclonal mouse antibody (clone M3A7, Chemicon). The blots were washed four times in PBS before the addition of the secondary HRP-conjugated anti-mouse antibody, at a dilution of 1:5000 (Amersham) for one hour at room temperature. The blots were washed five times in PBS and probed for chemiluminescence (Pierce). All samples were run with equal protein loading as determined using the Bradford assay (Biorad). Densitometry of the immunoblots was performed using the ImageJ program (National Institutes of Health).
On the technique in general: A western blot detects proteins with antibodies after separation by electrophoresis.

Assay [6] deals with T2, ΔF508-CFTR. Put plainly: three stage ELISA of CFTR surface expression, BHK cells expressing ΔF508-CFTR. Further details: which was then ligated into full length pNUT-CFTR linearized using Hpa1 and Pml1; expressed in transfected cells. As to conditions: 10% glycerol or 1 mM sodium 4-phenylbutyrate, 24 hours. How it is done:
as §1, §2
In general terms: In an ELISA, binding on a coated surface is turned into a signal by an enzyme label.

Assay [7] has as its target T2, ΔF508-CFTR. Put plainly: immunoblot and densitometry of mature band C, BHK cells expressing ΔF508-CFTR. Details: which was then ligated into full length pNUT-CFTR linearized using Hpa1 and Pml1; expressed in transfected cells. The protocol:
as §3
Total protein was quantified in cell lysates using the Bradford assay (BioRad, Hercules, Calif.), separated using SDS-PAGE (6% polyacrylamide gels), and analyzed by Western blotting as described previously (Robert et al., 2007). Western blots were blocked with 5% skimmed milk in PBS and probed overnight at 4° C. with a monoclonal primary anti-CFTR antibody (clone M3A7, Chemicon, Temecula, Calif.) diluted 1:1000. The blots were washed four times in PBS before adding the secondary HRP-conjugated anti-mouse antibody at a dilution of 1:5000 (Amersham, Piscataway, N.J.) for one hour at room temperature, then washed again five times in PBS and visualized using chemiluminescence (Pierce, Rockford, Ill.). The relative intensity of each CFTR glycoform (band B or band C) was estimated by densitometry using the ImageJ software and reported as a percentage of the total CFTR in the same lane (i.e. B+C).

Assay [8] addresses T2, ΔF508-CFTR. Put plainly: iodide efflux assay in BHK cells expressing ΔF508-CFTR. Further details: which was then ligated into full length pNUT-CFTR linearized using Hpa1 and Pml1; expressed in transfected cells. Particulars: 24 hours, BHK. How it is done:
Experiments were performed by hand or with a robotic liquid handling system (BioRobot 8000, Qiagen, USA) using Qiagen 4.1 software. Cells were cultured in 24-well plates until they reached confluence in order to perform parallel experiments and comparison analysis. After treatment (or not) with a test compound, medium in each well was replaced with 1 ml of iodide loading buffer (in mM: 136 NaI, 3 KNO3, 2 Ca(NO3)2, 11 glucose and 20 Hepes pH 7.4) for 1 hour at 37° C. to permit the I′ to reach equilibrium. At the beginning of each experiment, the loading buffer was removed by aspiration and cells were washed eight times with efflux buffer (same as loading buffer except that NaI was replaced with 136 mM NaNO3) to remove extracellular I^− in each well. The loss of intracellular I^− was determined by removing the medium and replacing it with fresh efflux buffer every 1 min for up to 11 min. The first four aliquots were recovered at 1-minute intervals in an empty 24-well plate and used to establish a stable baseline in efflux buffer alone. A stimulation buffer (efflux buffer containing 50 μM genistein+10 μM forskolin) was then added and sampling continued with replacement by stimulation buffer. The iodide concentration of each aliquot was determined using an iodide-sensitive electrode (Orion Research Inc., Boston, Mass., USA or Ecomet) and converted to iodide content (i.e. the amount of iodide released during the 1 min interval). Curves were constructed by plotting concentration versus time. Data are presented as means±SEM.
Iodide effluxes were performed using a robotic liquid handling system (BioRobot 8000, Qiagen, Valencia, Calif.) and Qiagen 4.1 software. Cells were cultured to confluence in 24-well plates. After treatment (or not) with a test compound, the medium in each well was replaced with 1 ml of iodide loading buffer: 136 mM NaI, 3 mM KNO3, 2 mM Ca(NO3)2, 11 mM glucose, 20 mM Hepes, pH 7.4 with NaOH) and incubated for 1 h at 37° C. At the beginning of each experiment, the loading buffer was removed by aspiration and cells were washed eight times with 300 μl efflux buffer (same as loading buffer except that NaI was replaced with 136 mM NaNO3) to remove extracellular I^−. Efflux was measured by replacing the medium with 300 μl fresh efflux buffer at 1 min intervals for up to 11 min. The first four aliquots were used to establish a stable baseline, then buffer containing 10 μM forskolin+50 μM genistein was used to stimulate CFTR activity. Iodide concentration was measured in each aliquot (300 μl) using an iodide-sensitive electrode (Orion Research Inc., Boston, Mass.). Relative iodide efflux rate was calculated using the difference between maximum (peak) iodide concentration during stimulation and minimum iodide concentration before stimulation (in μM/min). […]

For assay [9], the target named is T2, ΔF508-CFTR. Put plainly: iodide efflux assay in CFBE41o− airway epithelial cells. Particulars: 10 μM pretreatment. Further details: expressed in transfected cells; host or cells: CFBE41o- (ΔF508/ΔF508) transduced with ΔF508-CFTR, TranzVector lentivirus, provided by J. P. Clancy. The protocol:
Experiments were performed by hand or with a robotic liquid handling system (BioRobot 8000, Qiagen, USA) using Qiagen 4.1 software. Cells were cultured in 24-well plates until they reached confluence in order to perform parallel experiments and comparison analysis. After treatment (or not) with a test compound, medium in each well was replaced with 1 ml of iodide loading buffer (in mM: 136 NaI, 3 KNO3, 2 Ca(NO3)2, 11 glucose and 20 Hepes pH 7.4) for 1 hour at 37° C. to permit the I′ to reach equilibrium. […] The loss of intracellular I^− was determined by removing the medium and replacing it with fresh efflux buffer every 1 min for up to 11 min. […] The iodide concentration of each aliquot was determined using an iodide-sensitive electrode (Orion Research Inc., Boston, Mass., USA or Ecomet) and converted to iodide content (i.e. the amount of iodide released during the 1 min interval). […]
Iodide effluxes were performed using a robotic liquid handling system (BioRobot 8000, Qiagen, Valencia, Calif.) and Qiagen 4.1 software. […] Efflux was measured by replacing the medium with 300 μl fresh efflux buffer at 1 min intervals for up to 11 min. […] Iodide concentration was measured in each aliquot (300 μl) using an iodide-sensitive electrode (Orion Research Inc., Boston, Mass.). […]

“Also recorded” adds a separate entry of the source.

T2 sequence (P13569 with tags, fused parts or gaps DEL508-508): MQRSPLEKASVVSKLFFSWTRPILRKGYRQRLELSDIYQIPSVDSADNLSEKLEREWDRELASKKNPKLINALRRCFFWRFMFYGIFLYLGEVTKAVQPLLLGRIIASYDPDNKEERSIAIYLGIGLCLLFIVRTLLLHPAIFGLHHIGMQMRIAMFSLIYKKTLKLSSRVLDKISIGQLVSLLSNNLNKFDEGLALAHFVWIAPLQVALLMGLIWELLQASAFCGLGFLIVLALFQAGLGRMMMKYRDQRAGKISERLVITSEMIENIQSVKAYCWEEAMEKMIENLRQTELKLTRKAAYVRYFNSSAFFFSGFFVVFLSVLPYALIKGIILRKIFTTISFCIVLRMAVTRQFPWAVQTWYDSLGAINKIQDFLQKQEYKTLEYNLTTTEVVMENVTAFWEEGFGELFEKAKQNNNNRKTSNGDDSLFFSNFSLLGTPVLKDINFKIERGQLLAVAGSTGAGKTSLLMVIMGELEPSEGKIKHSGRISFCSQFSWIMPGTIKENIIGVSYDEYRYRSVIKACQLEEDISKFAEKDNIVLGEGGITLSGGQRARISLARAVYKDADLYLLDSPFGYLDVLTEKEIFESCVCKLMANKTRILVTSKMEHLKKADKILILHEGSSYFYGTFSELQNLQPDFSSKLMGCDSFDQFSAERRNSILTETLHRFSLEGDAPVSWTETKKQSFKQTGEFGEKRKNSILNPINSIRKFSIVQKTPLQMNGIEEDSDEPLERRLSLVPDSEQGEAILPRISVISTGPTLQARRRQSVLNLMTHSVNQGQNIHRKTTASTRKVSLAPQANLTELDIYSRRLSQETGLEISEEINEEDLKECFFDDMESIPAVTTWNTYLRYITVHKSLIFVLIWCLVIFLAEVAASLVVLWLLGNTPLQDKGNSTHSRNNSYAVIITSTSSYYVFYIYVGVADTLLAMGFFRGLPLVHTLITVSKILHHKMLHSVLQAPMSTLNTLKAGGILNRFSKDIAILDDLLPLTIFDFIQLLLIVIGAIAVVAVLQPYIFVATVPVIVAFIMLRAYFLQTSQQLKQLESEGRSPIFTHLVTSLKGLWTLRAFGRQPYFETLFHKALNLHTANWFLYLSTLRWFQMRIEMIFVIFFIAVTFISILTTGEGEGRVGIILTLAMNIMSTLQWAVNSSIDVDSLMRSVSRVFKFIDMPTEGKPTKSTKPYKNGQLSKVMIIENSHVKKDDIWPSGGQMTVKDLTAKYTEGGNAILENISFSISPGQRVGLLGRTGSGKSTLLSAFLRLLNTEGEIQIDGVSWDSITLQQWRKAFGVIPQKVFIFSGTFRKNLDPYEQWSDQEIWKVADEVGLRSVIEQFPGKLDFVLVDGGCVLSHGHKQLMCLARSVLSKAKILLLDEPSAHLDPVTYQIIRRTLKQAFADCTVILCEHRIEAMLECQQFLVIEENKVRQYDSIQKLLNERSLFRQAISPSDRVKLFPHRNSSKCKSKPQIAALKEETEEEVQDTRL
T3 sequence (P13569 whole entry): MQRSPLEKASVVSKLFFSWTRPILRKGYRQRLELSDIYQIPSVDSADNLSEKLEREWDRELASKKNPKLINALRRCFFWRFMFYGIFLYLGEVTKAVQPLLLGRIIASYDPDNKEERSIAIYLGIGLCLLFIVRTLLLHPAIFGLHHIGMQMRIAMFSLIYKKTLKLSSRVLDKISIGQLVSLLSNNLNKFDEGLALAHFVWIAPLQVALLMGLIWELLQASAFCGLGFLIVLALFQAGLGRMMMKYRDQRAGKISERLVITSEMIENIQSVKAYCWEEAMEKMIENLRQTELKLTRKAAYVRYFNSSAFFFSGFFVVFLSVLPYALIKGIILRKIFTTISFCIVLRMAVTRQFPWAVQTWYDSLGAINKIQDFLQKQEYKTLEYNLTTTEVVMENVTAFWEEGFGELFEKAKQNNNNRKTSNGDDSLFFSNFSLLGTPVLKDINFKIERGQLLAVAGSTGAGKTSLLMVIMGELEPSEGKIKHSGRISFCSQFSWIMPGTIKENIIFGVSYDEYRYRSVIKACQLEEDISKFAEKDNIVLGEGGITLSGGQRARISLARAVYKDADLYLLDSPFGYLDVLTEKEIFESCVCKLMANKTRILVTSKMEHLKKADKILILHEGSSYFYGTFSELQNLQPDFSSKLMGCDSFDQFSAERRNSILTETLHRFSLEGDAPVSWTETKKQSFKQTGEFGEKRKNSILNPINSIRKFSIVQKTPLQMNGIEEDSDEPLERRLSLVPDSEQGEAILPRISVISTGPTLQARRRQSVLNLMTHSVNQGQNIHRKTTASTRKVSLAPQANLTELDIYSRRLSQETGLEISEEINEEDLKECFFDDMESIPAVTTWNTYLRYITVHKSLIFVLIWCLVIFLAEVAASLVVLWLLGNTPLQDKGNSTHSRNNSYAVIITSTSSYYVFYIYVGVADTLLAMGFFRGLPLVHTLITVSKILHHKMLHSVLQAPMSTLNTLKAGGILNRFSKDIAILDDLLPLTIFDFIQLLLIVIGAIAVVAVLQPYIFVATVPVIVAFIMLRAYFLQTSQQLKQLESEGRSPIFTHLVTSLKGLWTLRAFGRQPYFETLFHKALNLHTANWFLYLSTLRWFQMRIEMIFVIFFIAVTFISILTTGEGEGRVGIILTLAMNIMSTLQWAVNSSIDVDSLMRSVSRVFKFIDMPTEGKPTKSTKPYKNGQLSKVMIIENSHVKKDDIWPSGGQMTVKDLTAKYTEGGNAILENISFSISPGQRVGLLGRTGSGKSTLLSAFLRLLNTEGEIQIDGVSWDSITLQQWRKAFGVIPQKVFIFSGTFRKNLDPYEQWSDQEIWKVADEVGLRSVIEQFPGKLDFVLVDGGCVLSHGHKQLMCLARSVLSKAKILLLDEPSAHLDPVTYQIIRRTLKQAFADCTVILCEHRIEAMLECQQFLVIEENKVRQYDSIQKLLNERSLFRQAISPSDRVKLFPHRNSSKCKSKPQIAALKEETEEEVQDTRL
T1 sequence (P13569 with tags, fused parts or gaps DEL508-508): as the sequence (P13569 with tags, fused parts or gaps DEL508-508) above

Consider `COc1ccc(S(=O)(=O)N2CCN(C(C)c3nc(OC4CCCCC4)c4ccccc4n3)CC2)cc1` (stereo not shown) [VRT325], for which the “functional correction in YFP quenching assay” value in assay [1] is listed as “somewhat larger YFP-quenching response”. Further, the “ΔF508-CFTR surface expression increase, normalized to BHK cells expressing wild-type CFTR” value in [2] (10 μM, 24 h, compared with vehicle alone) was 36%. Moreover, in assay [3], the “forskolin+genistein-stimulated Isc” value is recorded as “not different from vehicle controls”.

Turning to `OCC(O)CO` [glycerol], the “increase of plasma membrane signal” value in [4] was 2.5 fold. Moreover, the “increase of band C by densitometry” value in assay [5] is 1.5 fold; in assay [7] (10% glycerol, ΔF508-CFTR) it was 37 fold. Moreover, the “fluorescence increase in comparison with the untreated cells” value in assay [2] (10% glycerol, ΔF508-CFTR cells) came to 2.7 fold. In [6], the “plasma membrane signal (absorbance), words” value is recorded as “increased the plasma membrane signal”.

On to `CCCc1nn(C)c2c(=O)[nH]c(-c3cc(S(=O)(=O)N4CCN(C)CC4)ccc3OCC)nc12` [sildenafil], for which the “signal in the trafficking assay” value in [2] (Microsource Discovery library, medium and weak hits, 20 μM, 24 hours) is given as “consistently elevated signal”. In [7] (after sildenafil treatment), the “increase in the intensity of the mature band C” value is recorded as 30%. Moreover, the “cAMP-stimulated iodide efflux” value is recorded as “did not restore a strong cAMP-stimulated iodide efflux responses; also recorded: did not produce significant iodide efflux” in assay [8] (10 μM pretreatment) and “strong cAMP-stimulated iodide efflux was detected; also recorded: function was detected” in [8] (1 mM). Besides, in assay [9], the “iodide efflux” value is recorded as “negative result”.
